Results on 21 compounds are retold here after ChEMBL document CHEMBL5036328, “Nonpeptidic, Polo-Box Domain-Targeted Inhibitors of PLK1 Block Kinase Activity, Induce Its Degradation and Target-Resistant Cells” (J Med Chem, 2021).

Assay [1] deals with T1, Serine/threonine-protein kinase PLK1 (Homo sapiens, UniProt P53350). Briefly: Binding affinity to […] (unknown origin) using MAGPMQS[pT]PLNGAKK tracer peptide as substrate by fluorescence polarization binding assay. For orientation: In fluorescence polarisation assays a small probe gives low polarisation when free and higher when bound to something large.
T1 sequence (P53350 whole entry): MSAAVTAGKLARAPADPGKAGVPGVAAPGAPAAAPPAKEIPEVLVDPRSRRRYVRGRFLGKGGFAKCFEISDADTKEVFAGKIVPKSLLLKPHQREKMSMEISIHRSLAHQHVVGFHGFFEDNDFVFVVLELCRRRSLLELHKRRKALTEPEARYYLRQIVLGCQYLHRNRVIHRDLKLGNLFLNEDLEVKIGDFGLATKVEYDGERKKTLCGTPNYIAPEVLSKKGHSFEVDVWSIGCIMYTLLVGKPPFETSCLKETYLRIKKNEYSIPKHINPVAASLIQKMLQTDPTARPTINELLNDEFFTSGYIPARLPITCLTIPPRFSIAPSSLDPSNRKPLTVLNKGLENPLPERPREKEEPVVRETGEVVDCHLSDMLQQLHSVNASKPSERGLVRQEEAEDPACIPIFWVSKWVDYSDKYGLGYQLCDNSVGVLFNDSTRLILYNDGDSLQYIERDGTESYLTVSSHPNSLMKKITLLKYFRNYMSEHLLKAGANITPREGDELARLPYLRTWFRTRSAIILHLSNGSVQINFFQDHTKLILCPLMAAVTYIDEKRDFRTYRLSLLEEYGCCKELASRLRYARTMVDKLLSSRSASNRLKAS
Assay [2] has as its system PC-3. Briefly: Antiproliferative activity against human PC-3 cells assessed as reduction in cell viability incubated for 72 hrs by MTT assay. The conditions noted are these: PC-3, 72 h. In kind it is functional, cell-based. A general note: Tetrazolium dyes change colour on reduction, which living cells bring about.
Assay [3] has as its system HeLa. The experiment in a line: Antiproliferative activity against human HeLa cells assessed as reduction in cell viability incubated for 72 hrs by MTT assay. In kind it is functional, cell-based.
Assay [4] deals with T1, Serine/threonine-protein kinase PLK1. Briefly: Induction of PLK1 degradation in human DU-145 cells measured for 23 hrs by Western blot analysis. As to conditions: dose 10-45 µM. The assay is classed as cell-based.
For assay [5] the target is unchanged. Briefly: Induction of PLK1 degradation in human PC-3 cells measured for 23 hrs by Western blot analysis. In kind it is cell-based. (In general: Immunoblotting shows a protein as a band on a membrane.)
For assay [6] the target is unchanged. Briefly: Binding affinity to PLK1 in human PC-3 cells incubated for 2 hrs followed by heat shock for 10 mins by cellular thermal shift assay. The assay is classed as cell-based.
Assay [7] shares this target. Briefly: Inhibition of PLK1 in human PC-3 cells assessed as reduction in phosphorylation of TCTP at ser46 measured after 23 hrs by immunoblotting analysis. The assay is classed as cell-based.
The target is the same in assay [8]. The experiment in a line: Induction of PLK1 degradation in human PC-3 cells at 10 uM measured for 23 hrs by Western blot analysis relative to control. In kind it is cell-based.
Assay [9] has the same target. Briefly: Induction of PLK1 degradation in human PC-3 cells at 30 uM measured for 23 hrs by Western blot analysis relative to control. The assay is classed as cell-based.
Assay [10] shares this target. The experiment in a line: Induction of PLK1 degradation in human PC-3 cells at 45 uM measured for 23 hrs by Western blot analysis relative to control. The assay is classed as cell-based.
The target is the same in assay [11]. The experiment in a line: Induction of PLK1 degradation in human PC-3 cells at 10 uM pretreated with proteosome inhibitor MG132 for 1 hr followed by compound addition and measured after 23 hrs by Western blot analysis relative to control. The assay is classed as cell-based. Further details: scale not given: the % may be the effect or the level left.
For assay [12] the target is unchanged. Briefly: Induction of PLK1 degradation in human PC-3 cells at 30 uM pretreated with proteosome inhibitor MG132 for 1 hr followed by compound addition and measured after 23 hrs by Western blot analysis relative to control. In kind it is cell-based. Further details: scale not given: the % may be the effect or the level left.
Assay [13] shares this target. The experiment in a line: Induction of PLK1 degradation in human PC-3 cells at 45 uM pretreated with proteosome inhibitor MG132 for 1 hr followed by compound addition and measured after 23 hrs by Western blot analysis relative to control. In kind it is cell-based. Also on record: scale not given: the % may be the effect or the level left.
Assay [14] shares this target. The experiment in a line: Inhibition of PLK1 in human PC-3 cells assessed as reduction in phosphorylation of TCTP at ser46 measured after 23 hrs in presence of colcemid by immunoblotting analysis. In kind it is cell-based.
For assay [15] the target is unchanged. Briefly: Induction of PLK1 degradation in human PC-3 cells measured after 23 hrs in presence of colcemid by Western blot analysis. As to conditions: dose 10-45 µM. In kind it is cell-based.
For assay [16], the system named is PC-3. The experiment in a line: Induction of cell cycle arrest in human PC-3 cells at 10 to 45 uM incubated for 23 hrs by flow cytometry analysis. The assay is classed as functional, cell-based. The conditions noted are these: dose 10-45 µM.
Assay [17] has as its system PC-3. The experiment in a line: Induction of cell cycle arrest in human PC-3 cells assessed as reduction in G2/M phase at 45 uM incubated for 23 hrs in presence of colcemid by flow cytometry analysis (reference value: 67%). Also on record: scale not given: the % may be the effect or the level left. In kind it is functional.
For assay [18], the system named is HRPE. Briefly: Antiproliferative activity against human RPE cells expressing wild type PLK1 assessed as reduction in cell viability upto 120 uM after 72 hrs by MTT assay. In kind it is functional, cell-based.
Assay [19] deals with T1, Serine/threonine-protein kinase PLK1. Briefly: Induction of PLK1 degradation in human PC-3 cells upto 60 uM measured after 23 hrs by Western blot analysis. The conditions noted are these: dose microM <=60, time 23.0 hrs. In kind it is cell-based.
Assay [20] deals with PC-3. The experiment in a line: Induction of cell cycle arrest in human PC-3 cells at 60 uM incubated for 23 hrs in presence of colcemid by flow cytometry analysis. In kind it is functional, cell-based.
The test system of assay [21] is HRPE. Briefly: Antiproliferative activity against human RPE cells expressing C67V mutant PLK1 assessed as reduction in cell viability upto 120 uM after 72 hrs by MTT assay. The assay is classed as functional, cell-based.
In assay [22] the test system is HRPE. Briefly: Antiproliferative activity against human RPE cells expressing wild-type PLK1 assessed as reduction in cell viability after 72 hrs by MTT assay. The assay is classed as functional, cell-based.
Assay [23] relates to HRPE. The experiment in a line: Antiproliferative activity against human RPE cells expressing C67V mutant PLK1 assessed as reduction in cell viability after 72 hrs by MTT assay. In kind it is functional, cell-based.

The source made the active and inactive calls. The calls are words filed in the database; no cut-off is given here.

Take `CCCCCCCCCCc1ccc(C(=O)Nc2ccc(C)cc2C(=O)O)cc1`: the IC50 in [1] was determined as 23.8 µM; in [2], 22.8 µM; in assay [3], 15.5 µM.
Take `CCCCCCCCc1ccc(C(=O)Nc2ccc(C(F)(F)F)cc2C(=O)O)cc1`: the figures for the IC50 in assay [2] and in assay [3] were 14.2 µM and 10.5 µM, respectively.
As for `CCCCCCCOc1ccc(C(=O)Nc2ccc(C)cc2C(=O)O)cc1`, the IC50 in assay [1] is 34.4 µM; in assay [2], 43 µM; in assay [3] it was 31.3 µM.
In the case of `CCCCCCCCSc1ccc(C(=O)Nc2ccc(C)cc2C(=O)O)cc1`, the Activity entry in assay [4] is “Dose-Dependent Effect”; in assay [5], “Dose-Dependent Effect”; in assay [8], 30%; in assay [9] it was 5%; in assay [10] it was 7%; in [11], 64%. Moreover, the Activity was 25% in [12], 16% in assay [13], “Dose-Dependent Effect” in assay [15] and 20% in assay [17]. For the same compound, the IC50 in assay [1] was determined as 26.8 µM; in assay [2], 15 µM; in assay [3] it was 12 µM. In assay [6], the EC50 was 0.65 µM. Further, the inhibition entry in assay [7] and in assay [14] was “Active” throughout. Also, the result in [16] was inactive.
For the compound `CCCCCCCCCc1ccc(C(=O)Nc2cc(C)ccc2C(=O)OC)cc1`, the IC50 in assay [1] is over 600 µM; in assay [2], over 120 µM; in [3], over 120 µM. In addition, the result in assay [6] (time 130.0 min), in [18], in [19], in [20] and in assay [21] was inactive. The inhibition result in assay [14] is “inactive”.
In the case of `CCCCCCCCOc1ccc(C(=O)Nc2cc(C)ccc2C(=O)O)cc1`, the values for the IC50 in assay [1] and in assay [3] were 29.8 µM and 19.3 µM, respectively.
On to `CCCCCCCCSc1ccc(C(=O)Nc2cc(C)ccc2C(=O)O)cc1`, for which the values for the IC50 in assay [1] and in [2] were 28.1 µM and 26 µM, respectively.
On to `CCCCCCCSc1ccc(C(=O)Nc2ccc(C)cc2C(=O)O)cc1`, for which the IC50 in [1] was 23.4 µM; in assay [2] it was 14.3 µM; in assay [3], 9.4 µM. Besides, the result in assay [22] and in assay [23] was Active.
With `CCCCCCCCCCCCc1ccc(C(=O)Nc2ccc(C)cc2C(=O)O)cc1`, the IC50 was found to be 26.1 µM in assay [1], 16.5 µM in assay [2] and 10.7 µM in [3]. In addition, the result in assay [22] and in [23] was Active.
On to `CCCCCCCCCCCCc1ccc(C(=O)Nc2cc(C)ccc2C(=O)O)cc1`, for which the IC50 in [1] turned out to be 25.5 µM; in assay [2], 17 µM.
For `Cc1ccc(C(=O)O)c(NC(=O)c2ccc(N)cc2)c1`, the IC50 was over 600 µM in assay [1], over 120 µM in assay [2] and over 120 µM in [3].
Consider `CCCCCCCCCc1ccc(C(=O)Nc2cc(C)ccc2C(=O)O)cc1`, for which the values for the IC50 in [1] and in assay [2] were 28 µM and 18.2 µM, respectively.
Consider `CCCCCCCCNc1ccc(C(=O)Nc2ccc(C)cc2C(=O)O)cc1`, for which the IC50 in assay [1] is 73.2 µM; in assay [2], 36.4 µM.
As for `CCCCCCCSc1ccc(C(=O)Nc2ccccc2C(=O)O)cc1`, the values for the IC50 in assay [1] and in assay [2] were 29 µM and 27.9 µM, respectively.
As for `CCCCCCCNc1ccc(C(=O)Nc2ccc(C)cc2C(=O)O)cc1`, the results for the half-inhibitory concentration (IC50) in [1], in [2] and in [3] were 42 µM, 31.3 µM and 18.7 µM, respectively.
With `CCCCCCCCNc1ccc(C(=O)Nc2cc(C)ccc2C(=O)O)cc1`, the IC50 in assay [1] came out at 27.1 µM; in assay [2] it was 20 µM.
Take `CCCCCCCOc1ccc(C(=O)Nc2ccccc2C(=O)O)cc1`: the IC50 in [1] was found to be 37 µM; in assay [2], 30 µM.
Consider `CCCCCCCCOc1ccc(C(=O)Nc2ccc(C)cc2C(=O)O)cc1`, for which the IC50 was found to be 28.6 µM in assay [1] and 21.8 µM in assay [2].
Consider `CCCCCCCCCc1ccc(C(=O)Nc2ccc(C)cc2C(=O)OC)cc1`, for which the IC50 in [1] is over 600 µM.
Turning to `CCCCCCCCCc1ccc(C(=O)Nc2ccc(C)cc2C(=O)O)cc1`, the IC50 in [1] was determined as 33.8 µM; in assay [2], 30 µM; in assay [3], 21.6 µM.
Take `CCCCCCCNc1ccc(C(=O)Nc2ccccc2C(=O)O)cc1`: the IC50 came to 87.4 µM in assay [1] and 41.3 µM in assay [2].

Broadly, the IC50 is the point on the concentration scale where inhibition reaches its midpoint. By EC50 is commonly meant the concentration at which the effect is half-maximal.
